Laboratory results reported in the supplement of paper PMC10307832.

compound: CC(C)C[C@H](NC(=O)[C@H](CCc1ccccc1)NC(=O)CN1CCOCC1)C(=O)N[C@@H](Cc1ccccc1)C(=O)N[C@@H](CC(C)C)C(=O)[C@@]1(C)CO1 [Carfilzomib] + C[C@]1(O)C[C@@H](c2nc(-c3ccc4ccc(-c5ccccc5)nc4c3)c3c(N)nccn32)C1 [Linsitinib] (partner 1 µM); experiment: relative viability (nuclei count vs DMSO), 5 days (fraction); higher = more cells survive; conditions: first compound 0.1 µM
In short: (§1)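 Medians of duplicate plates are given as relative viability. That measure is the nuclei count in treated wells divided by the count in vehicle wells. Counts were taken on 4× images of lung cancer cell lines in 1536-well plates, 5 days after pin-tool dosing the day after seeding with one drug alone or a fixed anchor-drug dose plus five library-drug doses (not always all listed) in √10 steps.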

Row | Cell Line | relative viability
1 | LXF-289 | 0.083
2 | NCI-H23 | 0.12
3 | NCI-H322M | 0.489
4 | NCI-H358 | 0.16
5 | NCI-H441 | 0.115
6 | NCI-H460 | 0.0133
7 | NCI-H520 | 0.151
8 | NCI-H596 | 0.449
9 | NCI-H647 | 0.0315
10 | NCI-H650 | 0.176
11 | NCI-H661 | 0.171
12 | NCI-H727 | 0.117
13 | NCI-H838 | 0.116
14 | NCI-H1355 | 0.14
15 | NCI-H1395 | 0.307
16 | NCI-H1437 | 0.117

Row | Cell Line | relative viability
17 | NCI-H1651 | 0.0748
18 | NCI-H1666 | 0.24
19 | NCI-H1734 | 0.205
20 | NCI-H1755 | 0.218
21 | NCI-H1915 | 0.106
22 | NCI-H1944 | 0.489
23 | NCI-H1975 | 0.132
24 | NCI-H1993 | 0.563
25 | NCI-H2009 | 0.0639
26 | NCI-H2023 | 0.0783
27 | NCI-H2085 | 0.235
28 | NCI-H2087 | 0.119
29 | NCI-H2126 | 0.58
30 | NCI-H2228 | 0.103
31 | NCI-H2347 | 0.391
32 | NCI-H2405 | 0.16

compound: O=C(c1cc(Cc2n[nH]c(=O)c3ccccc23)ccc1F)N1CCN(C(=O)C2CC2)CC1 [Olaparib] + CC(=O)Nc1cccc(-n2c(=O)n(C3CC3)c(=O)c3c(Nc4ccc(I)cc4F)n(C)c(=O)c(C)c32)c1 [Trametinib] (partner 0.02 µM); experiment: as above; conditions: first compound 0.08 µM
In short: as §1

Row | Cell Line | relative viability
33 | LOU-NH91 | 0.862
34 | LU99A | 0.525
35 | LXF-289 | 0.737
36 | NCI-H23 | 0.402
37 | NCI-H322M | 0.496
38 | NCI-H358 | 0.13
39 | NCI-H441 | 0.548
40 | NCI-H460 | 0.115
41 | NCI-H520 | 0.794
42 | NCI-H596 | 0.789
43 | NCI-H647 | 0.471
44 | NCI-H650 | 0.893
45 | NCI-H661 | 0.602
46 | NCI-H727 | 0.415
47 | NCI-H838 | 0.585
48 | NCI-H1355 | 0.385
49 | NCI-H1395 | 1.11

Row | Cell Line | relative viability
50 | NCI-H1437 | 0.535
51 | NCI-H1651 | 0.849
52 | NCI-H1666 | 0.872
53 | NCI-H1734 | 0.688
54 | NCI-H1755 | 0.728
55 | NCI-H1915 | 0.278
56 | NCI-H1944 | 0.435
57 | NCI-H1975 | 0.329
58 | NCI-H1993 | 0.559
59 | NCI-H2009 | 0.275
60 | NCI-H2023 | 0.59
61 | NCI-H2085 | 0.619
62 | NCI-H2087 | 0.219
63 | NCI-H2126 | 0.527
64 | NCI-H2228 | 0.609
65 | NCI-H2347 | 0.282
66 | NCI-H2405 | 0.767

same assay, conditions: first compound 0.253 µM

Row | Cell Line | relative viability
67 | LOU-NH91 | 0.782
68 | LU99A | 0.535
69 | LXF-289 | 0.674
70 | NCI-H23 | 0.439
71 | NCI-H322M | 0.57
72 | NCI-H358 | 0.147
73 | NCI-H441 | 0.442
74 | NCI-H460 | 0.0823
75 | NCI-H520 | 0.527
76 | NCI-H596 | 0.719
77 | NCI-H647 | 0.424
78 | NCI-H650 | 0.939
79 | NCI-H661 | 0.5
80 | NCI-H727 | 0.363
81 | NCI-H838 | 0.493
82 | NCI-H1355 | 0.433
83 | NCI-H1395 | 0.876

Row | Cell Line | relative viability
84 | NCI-H1437 | 0.469
85 | NCI-H1651 | 0.75
86 | NCI-H1666 | 0.95
87 | NCI-H1734 | 0.583
88 | NCI-H1755 | 0.738
89 | NCI-H1915 | 0.285
90 | NCI-H1944 | 0.376
91 | NCI-H1975 | 0.349
92 | NCI-H1993 | 0.57
93 | NCI-H2009 | 0.283
94 | NCI-H2023 | 0.514
95 | NCI-H2085 | 0.528
96 | NCI-H2087 | 0.208
97 | NCI-H2126 | 0.55
98 | NCI-H2228 | 0.344
99 | NCI-H2347 | 0.274
100 | NCI-H2405 | 0.597

same assay, conditions: first compound 2.53 µM

Row | Cell Line | relative viability
101 | LOU-NH91 | 0.793
102 | LU99A | 0.473
103 | LXF-289 | 0.771
104 | NCI-H23 | 0.385
105 | NCI-H322M | 0.577
106 | NCI-H358 | 0.145
107 | NCI-H441 | 0.382
108 | NCI-H460 | 0.121
109 | NCI-H520 | 0.506
110 | NCI-H596 | 0.82
111 | NCI-H647 | 0.54
112 | NCI-H650 | 0.915
113 | NCI-H661 | 0.569
114 | NCI-H727 | 0.37
115 | NCI-H838 | 0.536
116 | NCI-H1355 | 0.481
117 | NCI-H1395 | 0.852

Row | Cell Line | relative viability
118 | NCI-H1437 | 0.503
119 | NCI-H1651 | 0.642
120 | NCI-H1666 | 0.791
121 | NCI-H1734 | 0.718
122 | NCI-H1755 | 0.784
123 | NCI-H1915 | 0.261
124 | NCI-H1944 | 0.372
125 | NCI-H1975 | 0.395
126 | NCI-H1993 | 0.517
127 | NCI-H2009 | 0.315
128 | NCI-H2023 | 0.525
129 | NCI-H2085 | 0.504
130 | NCI-H2087 | 0.215
131 | NCI-H2126 | 0.584
132 | NCI-H2228 | 0.495
133 | NCI-H2347 | 0.274
134 | NCI-H2405 | 0.677

same assay, conditions: first compound 8 µM

Row | Cell Line | relative viability
135 | LOU-NH91 | 0.825
136 | LU99A | 0.466
137 | LXF-289 | 0.847
138 | NCI-H23 | 0.368
139 | NCI-H322M | 0.523
140 | NCI-H358 | 0.12
141 | NCI-H441 | 0.447
142 | NCI-H460 | 0.0533
143 | NCI-H520 | 0.311
144 | NCI-H596 | 0.637
145 | NCI-H647 | 0.523
146 | NCI-H650 | 0.782
147 | NCI-H661 | 0.525
148 | NCI-H727 | 0.349
149 | NCI-H838 | 0.547
150 | NCI-H1355 | 0.476
151 | NCI-H1395 | 0.629
152 | NCI-H1437 | 0.504
